Measurements taken from PubChem BioAssay AID1286 (University of Pittsburgh Molecular Library Screening Center, 2008).
Results filed as inconclusive are left out. The source made the active and inactive calls. How the calls were made is not given here.

Molecular target: Serine/threonine-protein kinase D1 (Homo sapiens) (UniProt Q15139)
Assay: inhibitors of human PKD1 kinase, confirmation, biochemical, fluorescence polarization, 140K library hits, repeat (AID 1286)
Settings: at 10 µM, active compounds read high

Chain of Serine/threonine-protein kinase D1 (Homo sapiens) (Q15139 whole entry, looked up): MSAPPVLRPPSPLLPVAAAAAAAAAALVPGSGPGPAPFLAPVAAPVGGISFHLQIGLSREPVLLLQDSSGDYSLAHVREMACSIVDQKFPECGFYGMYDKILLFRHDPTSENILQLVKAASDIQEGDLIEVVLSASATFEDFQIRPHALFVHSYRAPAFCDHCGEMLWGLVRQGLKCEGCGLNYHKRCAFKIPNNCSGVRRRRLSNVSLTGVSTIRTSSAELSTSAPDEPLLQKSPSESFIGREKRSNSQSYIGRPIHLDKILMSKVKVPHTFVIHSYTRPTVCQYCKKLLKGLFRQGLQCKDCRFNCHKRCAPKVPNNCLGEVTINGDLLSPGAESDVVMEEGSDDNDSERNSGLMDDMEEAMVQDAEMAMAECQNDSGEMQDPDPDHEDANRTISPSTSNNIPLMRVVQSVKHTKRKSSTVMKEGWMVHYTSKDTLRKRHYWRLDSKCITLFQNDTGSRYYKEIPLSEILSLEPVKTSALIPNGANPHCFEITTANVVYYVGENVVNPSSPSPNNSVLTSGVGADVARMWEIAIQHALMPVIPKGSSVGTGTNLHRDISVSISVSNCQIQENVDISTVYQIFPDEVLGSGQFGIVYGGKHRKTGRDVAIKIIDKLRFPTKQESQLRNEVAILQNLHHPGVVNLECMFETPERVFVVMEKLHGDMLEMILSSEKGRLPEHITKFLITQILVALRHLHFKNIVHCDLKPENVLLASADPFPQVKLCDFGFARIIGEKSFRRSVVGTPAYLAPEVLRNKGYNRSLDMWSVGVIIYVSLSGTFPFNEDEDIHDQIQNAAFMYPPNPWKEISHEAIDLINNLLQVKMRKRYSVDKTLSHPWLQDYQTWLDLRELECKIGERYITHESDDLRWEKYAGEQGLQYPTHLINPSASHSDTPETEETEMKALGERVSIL

Compound | inhibition
Cn1c(OCc2cccnc2)nc2c1c(=O)n(Cc1ccc(Br)cc1)c(=O)n2C | -0.468% (inactive)
O=C(Nc1ccccc1Cl)ON=C1c2ccccc2-c2ccccc21 | 14.4% (inactive)
Cc1cc(N=CC2=C(O)CC(C)(C)CC2=O)no1 | -1.85% (inactive)
Nc1nnc(SCCCC(=O)c2ccc(F)cc2)s1 | 26.1% (inactive)
NC(=O)c1cn(C2OC(CO)C(O)C2O)c2ncnc(N)c12 (stereo unspecified) | 90.3%
O=C1CC(N2CCN(c3ccccc3Cl)CC2)C(=O)N1c1cccc(F)c1 (stereo unspecified) | -6.73% (inactive)
CC(OC(=O)c1ccc(NS(=O)(=O)c2cccs2)cc1)C(=O)N(C)C1CCCCC1 (stereo unspecified) | -4.35% (inactive)
Cc1[nH]nc2c1-c1nc3ccccc3nc1C(C)(C)C2 | 40% (inactive)
COc1ccc(S(=O)(=O)N2CCC(n3cnc4cc(C(F)(F)F)ccc43)CC2)cc1 | 20.8% (inactive)
Cc1c(C(=O)N/N=C/c2ccc(O)c(Br)c2)sc(N)c1C#N | 44.5% (inactive)
Cc1ccc(C(=O)Cn2c(NCCO)nc3ccccc32)cc1 | -5.32% (inactive)
COc1ccccc1C(=O)NN1C(=O)C2C3C=CC(O3)C2C1=O (stereo unspecified) | -0.477% (inactive)
CCCNC(=O)CN(c1ccc(F)cc1)S(=O)(=O)c1ccc2c(c1)OCCO2 | -8.66% (inactive)
O=C(Nc1ccccc1)ON=C1c2ccccc2-c2ccccc21 | 17.2% (inactive)
Cc1nn(C)c(C)c1N1C(=O)c2cccc3c(N)ccc(c23)C1=O | 46.3% (inactive)
COC(=O)c1cccc2c1-c1ccccc1/C2=N/O | 19.8% (inactive)
O=C(CN1CCCC1)Nc1c2c(nc3ccccc13)N(Cc1ccccc1)CC2 | -4.44% (inactive)
CCC1=NNc2cccc3c(OC)ccc1c23 | 89.7%
CC1CCCC(C)N1C(=O)Cn1cc(/C=C2/C(=O)Nc3ccccc32)c2ccccc21 (stereo unspecified) | 2.88% (inactive)
Cc1occc1C(=O)NC(C)CCc1ccccc1 (stereo unspecified) | -0.529% (inactive)
COc1ccc2nc3sc(C(=O)NCCCN4CCc5ccccc5C4)cc3cc2c1 | 7.3% (inactive)

Compound | inhibition
O=C(Nc1ccsc1C(=O)NC1CC1)c1ccccc1 | 9.43% (inactive)
O=C1NCCCc2c1oc1ccc(O)cc21 | 96.2%
C=CCn1c(SC(C)C(=O)NCc2ccc3c(c2)OCO3)nnc1C1CCCCC1 (stereo unspecified) | -1.58% (inactive)
CN1CCN(c2ccccc2NC(=O)c2ccc(-c3cccc([N+](=O)[O-])c3)o2)CC1 | 7.36% (inactive)
COc1ccc(Nc2cc(C)nc(-n3nc(C)cc3C)n2)cc1 | 3.67% (inactive)
Cc1cc2nc3c(=O)n(C4CCCCC4)c(=O)[nH]c3nc2cc1N | 21.6% (inactive)
O=C1Nc2ccccc2/C1=C/c1cnc[nH]1 | 28.3% (inactive)
CCN(CC)c1ccc(NC(=O)COc2ccccc2C#N)cc1S(=O)(=O)Nc1ccc(OC)cc1 | -2.22% (inactive)
Cc1c(N/N=C(\C#N)C(=O)c2ccc(Cl)cc2)c(=O)n(-c2ccccc2)n1C | 18% (inactive)
CCOC(=O)N1CCC(N2CCN(S(=O)(=O)CC)CC2)CC1 | -3.7% (inactive)
CC(C)CCN1CN(S(=O)(=O)c2cccs2)c2nc3ccccc3nc21 | -0.214% (inactive)
CN1CCN(c2cccc3c2C(=O)c2ccccc2C3=O)CC1 | 34.4% (inactive)
NC(N)=NC(=O)c1nc(Cl)c(N)nc1N | 58.6%
Cn1c(=O)c(NCCO)c2c3c(cccc31)C(=O)c1ccccc1-2 | 95.8%
Cc1cc(Nc2cccc(F)c2)nc(NCc2ccccc2)n1 | 1.99% (inactive)
Nc1nc2ccccc2n1/N=C/c1ccc([N+](=O)[O-])s1 | 34.7% (inactive)
Clc1ccc(Nc2ccc(-n3ccnc3)nn2)cc1Cl | -1.8% (inactive)
CS(=O)(=O)N1CCN(c2ccccc2NC(=O)c2ccc(Br)o2)CC1 | 96.2%
Cc1cc(NCCCN)nc(-c2ccccc2O)n1 | 59.5%
COc1cc2c(cc1OC)-c1c(OC)c(OC)c(OC)c3ccnc(c13)C2=O | 10.4% (inactive)
CS(=O)(=O)N1CCN(c2ccc(NC(=O)c3ccc(Br)o3)cc2)CC1 | -7.85% (inactive)

Compound | inhibition
O=C(Nc1ccc(Cl)cc1)OCc1cn(-c2ccc(Cl)cc2)nn1 | -2.52% (inactive)
CCn1c(CSc2ncccn2)nnc1SCC(=O)N1CCc2ccccc21 | -1.28% (inactive)
CN(C)CCOc1ccc2c(c1)Sc1ccccc1CC2=O | 8.37% (inactive)
CC(=O)Nc1ccc2c(c1)c1ccccc1n2C(C)=O | 14.5% (inactive)
Clc1cncc(Cl)c1N/N=C/c1ccncc1 | 77.4%
O=C1CC(N2CCN(c3ccccc3Cl)CC2)C(=O)N1c1ccc(F)cc1 (stereo unspecified) | -3.22% (inactive)
Cc1c(C(=O)NCc2cccnc2)sc2nc(-c3ccc(F)cc3)cn12 | -3.04% (inactive)
O=C(Nc1ccc(CN2CCOCC2)cc1)c1ccc(-c2cccc(Cl)c2)o1 | 52.6%
COCC(C)n1c(C)cc(C(=O)COC(=O)c2nc3nc(C)cc(C)n3n2)c1C (stereo unspecified) | -2.8% (inactive)
COc1cc(C2=NOC(C(=O)NCc3ccco3)C2)cc(OC)c1OC (stereo unspecified) | -3.78% (inactive)
COc1ccc(C2C(C(=O)c3cccs3)=C(O)C(=O)N2c2nncs2)cc1 (stereo unspecified) | 35.1% (inactive)
Nc1nc2ccccc2n1/N=C/c1cccnc1 | 36.4% (inactive)
Cc1ccc(NC(=O)CNc2ccc(Cl)cc2F)cc1 | 0.85% (inactive)
CCOc1cccc(C2C(C(=O)c3ccc(C)o3)=C(O)C(=O)N2c2nccs2)c1 (stereo unspecified) | 73.4%
CCCCn1c(=O)[nH]c2nc3cc(N)ccc3nc2c1=O | 31.1% (inactive)
COc1ccc(-c2cnnc(N/N=C/c3ccc(O)c(O)c3)n2)cc1 | 3.96% (inactive)
CCC(=O)Nc1c2c(nn1-c1ccccc1C)CSC2 | 58.1%
CCOC(=O)c1cccc(NC(=O)CCS(=O)(=O)c2cccc3nsnc23)c1 | 28.8% (inactive)
COc1ccccc1/C=C1\SC(=S)N(CCC(=O)NC2=NCCS2)C1=O | -0.701% (inactive)
Cc1c(N/N=C(\C#N)C(=O)c2ccccc2)c(=O)n(-c2ccccc2)n1C | 12.8% (inactive)
O=C1CCCc2c1cc(C(=O)NCc1ccco1)c(=O)n2-c1ccccc1 | -5.46% (inactive)

Compound | inhibition
COC(=O)c1ccccc1OCC(=O)NC1CCCCC1 | -3.26% (inactive)
c1ccc(-c2n[nH]c3ccccc23)cc1 | 11.3% (inactive)
CCOC(=O)c1[nH]c2cc(OC)c(OC)cc2c1NC(=O)CN1CCN(C)CC1 | 3.12% (inactive)
CC(=O)Oc1cc(OC(C)=O)c2c(C)cc(=O)oc2c1 | 68.1%
O=C(Nc1cccc([N+](=O)[O-])c1)C12CC3CC(C1)CC(n1cnc([N+](=O)[O-])n1)(C3)C2 | -4.73% (inactive)
Cn1c(=O)[nH]c(=O)c2c1nc(NC1CCCCC1)n2CC(=O)NC1CCCCC1 | -11.5% (inactive)
O=C1c2ccccc2-c2onc3ccc(NCc4ccco4)c1c23 | 32.1% (inactive)
CN(C)c1ccc(/C=C2\SC(=S)N(Nc3ncc(C(F)(F)F)cc3Cl)C2=O)cc1 | 4.05% (inactive)
O=C(c1cc(-c2ccccc2)nc2ccccc12)N1CCN(c2ccccn2)CC1 | 0.468% (inactive)
CCOC(=O)N1CCN(c2cc(NCCC(=O)O)c3c4c(onc24)-c2ccccc2C3=O)CC1 | 3.06% (inactive)
NC(=NCCc1c[nH]c2ccccc12)NS(=O)(=O)c1cc(F)ccc1F | 2.31% (inactive)
Cc1ccc(NC(=O)C2CCCN(S(=O)(=O)c3c(C)noc3C)C2)c(C)c1 (stereo unspecified) | -2.05% (inactive)
CCOC(=O)N1CCC(NS(=O)(=O)c2cc(Br)cc3c2N(C(=O)CC)CC3)CC1 | -5.57% (inactive)
O=C(O)C1CCN(c2ncccn2)CC1 | -5.12% (inactive)
Nc1nc2ccc([N+](=O)[O-])c(N)c2s1 | 69.9%
O=C(NCCOC(=O)c1ccc(C(=O)OCCNC(=O)c2cccnc2)s1)c1cccnc1 | -5.26% (inactive)
Cc1ccc(C(=O)NNC2=Nc3cccc4cccc2c34)cc1 | 6.45% (inactive)
Cn1c(=O)oc2cc(S(=O)(=O)N3CCN(Cc4ccc5c(c4)OCO5)CC3)ccc21 | -1.91% (inactive)
